Test results as given in publication PMC6265740, “Biochemical and Anti-Triple Negative Metastatic Breast Tumor Cell Properties of Psammaplins” (Marine Drugs, 2018).

Assays:
[1] = system: MDA-MB-231; set-up: method as in PMID 28574600; conditions: in vitro ref 38; cited from earlier work
[2] = system: MDA-MB-231; set-up: method as in PMID 28574600; conditions: embryonic zebrafish, xenografts, and orthotopic tumor models ref 38; cited from earlier work
[3] = system: SIRT1; set-up: method as in PMID 25445714, PMID 27537898; conditions: breast tumor cells ref 36,37; cited from earlier work
[4] = system: BoM spheroids; experiment: Cultrex 3D spheroid cell invasion assay; format: cell-based, human; conditions: 96 h, in comparison to the HDAC inhibitors
Method: In order to form metastatic lesions, metastasis-initiating tumor cells must invade and intravasate into the lymphatic vasculature and/or blood vessels. Psammaplins were evaluated in a Cultrex® 3-D cell invasion assay that monitors the invasion and migration of tumor cells grown as spheroids, which closely model in vivo pathophysiological conditions.
Figure 5 Inhibition of bone metastatic BoM cell invasion. Tumor cell spheroids formed in a special spheroid formation extracellular matrix (ECM) were embedded in an invasion matrix containing 10% fetal bovine serum (FBS) in the presence and absence of compounds at the specified concentrations. Four days later (T96), cell invasion was recorded microscopically (the bar at the bottom right represents 100 µm).
The 3D spheroid cell invasion assay was performed using a commercial kit, following the manufacturer’s instructions (Cultrex® 3D Spheroid Cell Invasion Assay, Trevigen, Gaithersburg, MD, USA). Briefly, exponentially grown MDA-MB-231, LM, BoM, and BrM cells were trypsinized, collected, and resuspended in serum-free DMEM/F12 media. For spheroid formation, 3000 cells were added in a volume of 50 µL serum-free DMEM/F12 media with 1× spheroid formation solution/well into a pre-cooled 96-well plate. The plate was centrifuged at 100× g for 5 min at 4 °C, incubated at 37 °C for 24 h, and the spheroids imaged using an Axiovert 40 CFL microscope (Zeiss, Oberkochen, Germany). The plate was placed on ice, the invasion mix added in a volume of 50 µL/well, centrifuged at 350× g for 5 min at 4 °C, and incubated at 37 °C for 1 h. Test compounds and controls were diluted to two times the final concentrations in DMEM/F12 media supplemented with FBS (10%) and antibiotics, and added in a volume of 100 µL/well. The incubation continued for another 4 days at 37 °C and the cells/spheroids imaged (T96).

[5] = system: T47D, MDA-MB-231, LM, BoM, BrM cells; experiment: Clonogenic assay; format: cell-based, human; conditions: 24 h exposure, 10 days; 1 µM paclitaxel and TSA, 10 µM 1–5
Method: The effects of psammaplins on the colony-forming ability of single cells were assessed in a clonogenic assay. Cells seeded at low density were exposed to test compounds at the specified concentrations for 24 h. The conditioned media were replaced with growth media and the colonies formed from surviving single cells in 10 days.
Figure 4 Effects of 1–5 and TSA (trichostatin A) on colony formation. Cells plated at low density were exposed to compounds (24 h) at specified concentrations (1 µM for paclitaxel and TSA, and 10 µM for 1–5). After a period of ten days, the cells were fixed and stained.
For the clonogenic assay, exponentially grown cells were seeded at the density of 1000 cells/well into 6-well plates (Cellstar®, Greiner Bio-One GmbH, Kremsmünster, Austria) and incubated at 37 °C for 4 h to allow the cells to adhere. Compound addition was similar as above. After 24 h, the compound-containing conditioned media were replaced with fresh medium containing FBS (10%) and antibiotics. The incubation continued for another 10 days with a change of fresh medium every 5 days, the cells were fixed with methanol and stained with crystal violet (1 mg/mL in 20% ethanol), and the images were acquired with a Kodak digital camera.

C=CCSSSCC=C [Garlic diallyl trisulfide, diallyl trisulfide]
MDA-MB-231 migration and angiogenesis [1]: inhibited MDA-MB-231 migration and angiogenesis | MDA-MB-231 metastatic potential [2]: suppress MDA-MB-231 metastatic potential

O=C(NCCSSCCNC(=O)/C(Cc1ccc(O)c(Br)c1)=N/O)/C(Cc1ccc(O)c(Br)c1)=N/O [Psammaplin A]
SIRT1 enzyme expression and activity [3]: decreased SIRT1 enzyme expression and activity

CC(=O)O[C@H]1C(=O)[C@@]2(C)[C@H]([C@H](OC(=O)c3ccccc3)[C@]3(O)C[C@H](OC(=O)[C@H](O)[C@@H](NC(=O)c4ccccc4)c4ccccc4)C(C)=C1C3(C)C)[C@]1(OC(C)=O)CO[C@@H]1C[C@@H]2O [paclitaxel]
size of the spheroids [4]: more pronounced decrease in the size of the spheroids | colony formation [5]: blocked colony formation in all cell lines
